Source: patent US9952300B2, “Dynamic contrast enhanced MRI method and agents for the assessment of the macromolecular transport within pathologic tissues” (BRACCO IMAGING S.P.A., priority 2012, dated 2018)
Several values for one entry are separate records, joined by “and”; a condition that tells them apart may be missing. Identical values can stand only once.

Assays:
[1] = tested on: PC-3 human prostate adenocarcinoma tumor; assay: DCE-MRI of contrast agent kinetics in PC-3 tumors of Axitinib- or vehicle-treated mice (Example 3); type: in vivo, NCR athymic nude mice; settings: contrast agent 100 μmol/kg i.v., one value per animal, trisodium salt
Text: The comparative test has been performed using NCR athymic nude mice implanted with PC-3 cells (a human prostate cancer line) and treated with Axitinib®, a VEGFRs inhibitor, (to modulate the tumor vascular permeability) by a protocol which timing is for instance schematized in FIG. 1. Scope of the test was to compare the image-based analysis of the albumin distribution in a human tumor model as extracted from the analysis of a time-serie of MRI images (with spatial resolution of around 110 μm) acquired with the method of the invention after injection of B22956/1 as contrast agent, and the distribution of FITC-BSA (Fluorescent isothiocyanate Bovine Serum Albumin) albumin inside and outside vessels histologically determined from fluorescent microscopy images on a scale of microns.
In particular, the trans-endothelial permeability (K^Trans) and the fractional plasma volume (fPV) were calculated from dynamic MR data by application of a bi-compartmental pharmacokinetic model, while the Initial Area Under the Curve (IAUCT) was calculated in several time windows, typically comprised between the contrast agent administration and the end of the MRI acquisition. The macromolecular penetration in tumors was, then, probed by fluorescently labelled Bovine Serum Albumin administered via tail vein after the last MRI session. Microscopic images were used to quantify the percentage of area stained by fluorescent albumin in the tumor, as a measure of the blood vessel density, using an automatic thresholding method. The albumin extravasation in the tumor extravascular space was assessed based on the fluorescence found out of the blood vessels from histological samples taken from both of tumor rim and core, for instance as schematized in FIG. 2. In particular, the albumin florescence was averaged over all pixels at a given distance from the nearest vessel and stored as a function of distance from the vessels walls, by use of an optimized procedure, for instance schematized in FIG. 3, providing both a quantification of the availability of the albumin in the extravascular space of the concerned tumor, namely the amount of the extravasated FITC-Albumin, and the decay of its concentration over the distance x from a nearest vessel, or, in other words, its actual distribution and dilution within the extracellular spaces (for instance as schematized in FIG. 4).
Human prostate adenocarcinoma cells (PC-3) were supplied by ATCC (American Type Culture Collection) and grown in Hams F-12 medium supplemented with 10% foetal bovine serum, 2 mM glutamine, 100 IU/mL penicillin and 100 μg/mL streptomycin (all from Lonza, Verviers, Belgium). […] Tumour development was followed by palpation and measured by calliper every 2-3 days until the end of the experiment. […]

[2] = tested on: WM1552/5 melanoma xenografts; assay: DCE-MRI with B22956/1 in WM1552/5 melanoma xenografts 24 h after PTX (Example 4); type: in vivo, NCr-nu/nu mice; settings: WM1552/5 tumor rim and core, 24 h after PTX 20 mg/kg i.v.
Text: Indeed, the potential of non-covalent protein binding contrast agents according the invention to provide in vivo suitable estimates of the effect promoted by a therapeutic agent such as, for instance, an EPR-enhancing agent, i.e. an agent devoted to enhance the uptake of the co-administered macromolecular drug in the tumor area, has been investigated by means of Dynamic Contrast Enhanced MRI tests performed in vivo with B22956/1, used as representative agent according to the invention, on melanoma cancer model xenografts in nude mice treated with vehicle or Paclitaxel (PTX). […] Jain, R. K. & Stylianopoulos, T. Nat. Rev. Clin. Oncol. 2010, 7: 653-664).
Six- to eight-week-old female NCr-nu/nu mice, obtained from Harlan (Correzzana, Italy) were maintained under specific pathogen-free conditions and handled using aseptic procedures throughout the whole study. […]
PTX- and vehicle-treated nude mice bearing WM1552/5 melanoma xenografts (N=4 mice per group) were analyzed by DCE-MRI 24 h after PTX administration. […] Pre-contrast T1 values in tumors were measured using a multislice variable flip-angle FLASH. […]
Differences in the kinetics of distribution of the contrast agent (DCE-MRI) were analyzed by Mann Whitney U test.

SMILES	kTrans (Transfer Constant) ([1]; tumor core)	kTrans (Transfer Constant) ([1]; tumor rim)	K^trans measured with B22956/1, pre-treated versus vehicle [2]	fractional plasma volume fPV (%) measured with B22956/1, pre-treated versus vehicle [2]
C[C@H](CCC(=O)[O-])[C@H]1CC[C@H]2[C@@H]3CC[C@@H]4C[C@@H](NC(=O)CC[C@@H](C(=O)[O-])N(CCN(CC(=O)[O-])CC(=O)[O-])CCN(CC(=O)[O-])CC(=O)[O-])CC[C@]4(C)[C@H]3C[C@H](O)[C@]12C.[Gd+3].[Na+].[Na+].[Na+] [B22956/1, Gadocoletic acid trisodium salt]	1.09 mL\(min × g) × 100 and 0.98 mL\(min × g) × 100 (2×) and 0.40 mL\(min × g) × 100 (2×) and 1.81 mL\(min × g) × 100 and 0.31 mL\(min × g) × 100 and 0.95 mL\(min × g) × 100 and 0.44 mL\(min × g) × 100 and 1.77 mL\(min × g) × 100 and 1.82 mL\(min × g) × 100 and 1.57 mL\(min × g) × 100 and 1.29 mL\(min × g) × 100 and 1.85 mL\(min × g) × 100 and 1.20 mL\(min × g) × 100	2.45 mL\(min × g) × 100 and 1.91 mL\(min × g) × 100 (2×) and 0.83 mL\(min × g) × 100 and 2.30 mL\(min × g) × 100 and 1.06 mL\(min × g) × 100 and 1.76 mL\(min × g) × 100 and 1.33 mL\(min × g) × 100 and 3.00 mL\(min × g) × 100 and 1.68 mL\(min × g) × 100 and 2.77 mL\(min × g) × 100 and 2.15 mL\(min × g) × 100 and 2.37 mL\(min × g) × 100 and 1.17 mL\(min × g) × 100 and 3.22 mL\(min × g) × 100 and 2.24 mL\(min × g) × 100	–	–
CC(=O)O[C@H]1C(=O)[C@@]2(C)[C@H]([C@H](OC(=O)c3ccccc3)[C@]3(O)C[C@H](OC(=O)[C@H](O)[C@@H](NC(=O)c4ccccc4)c4ccccc4)C(C)=C1C3(C)C)[C@]1(OC(C)=O)CO[C@@H]1C[C@@H]2O [PTX, Paclitaxel]	–	–	statistically significant increase	statistically significant increase
